Reference: patent US9108959B2, “Process for the preparation of an orexin receptor antagonist” (Merck Sharp & Dohme Corp., priority 2011, dated 2015)

Test: relative thermodynamic stability of crystalline forms (slurry of equal amounts of the two forms in EtOH at various temperatures)
Assay type: physicochemical
Details: for temperatures at which the form is the thermodynamically most stable crystalline form: enantiotropically related forms
Description: Anhydrous form I and Anhydrous form II are enatiotropically related. […] The transition temperature between anhydrous form I and anhydrous form II was determined by slurring a mixture containing equal amounts of the two forms in EtOH at various temperatures. The transition temperature between anhydrous form I and anhydrous form II is between 35 and 40° C. […] Anhydrous Form II can be synthesized using a crystallization process that is more efficient and results in improved particle size and morphology control relative to anhydrous form I. Anhydrous form II has better crystallinity, better filtration properties and gives better purity rejection than anhydrous form I. Anhydrous form II has better processability for preparing formulations than Anhydrous form I.

Structure (SMILES)	stability of crystalline phase (at 25° C.)	temperatures at which the form is the thermodynamically most stable crystalline form
Cc1ccc(-n2nccn2)c(C(=O)N2CCN(c3nc4cc(Cl)ccc4o3)CC[C@H]2C)c1 [Anhydrous form I, [(7R)-4-(5-chloro-1,3-benzoxazol-2-yl)-7-methyl-1,4-diazepan-1-yl][5-methyl-2-(2H-1,2,3-triazol-2-yl)phenyl]methanone]	most stable crystalline phase	≤ 35 °C
Cc1ccc(-n2nccn2)c(C(=O)N2CCN(c3nc4cc(Cl)ccc4o3)CC[C@H]2C)c1 [Anhydrous form II, [(7R)-4-(5-chloro-1,3-benzoxazol-2-yl)-7-methyl-1,4-diazepan-1-yl][5-methyl-2-(2H-1,2,3-triazol-2-yl)phenyl]methanone]		≥ 40 °C
